Laboratory results reported in PubChem BioAssay AID1189 (EPA DSSTox, 2008).
Active and inactive are the calls of the source.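 The calls were made as follows: active = a tumor-causing dose value with its tumor site reported for any sex and species group of a rodent or other animal cancer study; inconclusive = only studies judged inadequate by the national testing program; inactive = tested in at least one study, none positive.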

Test: DSSTox (CPDBAS) Carcinogenic Potency Database Summary SingleCellCall Results
Conditions: animal chronic carcinogenicity bioassays, CPDB summary call
Procedure, shortened: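 Literature-derived summary: each substance receives an overall carcinogenic/non-carcinogenic category drawn from long-term bioassays in rats, mice, hamsters, dogs or primates, using the most positive sex-species experiment and minimal evidence criteria.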

Structure (SMILES) | outcome
O[C@H]([C@H](O)[C@@H](O)CBr)[C@H](O)CBr | active; inactive
CN=[N+](C)[O-] | active
CN(N=O)c1ccc(/C=C/c2ccnc3ccccc23)cc1 | active
CNc1ncnc2nc[nH]c12 | inactive
Nc1ccc(N=Nc2ccc(N)cc2)cc1 | inactive; active
O=NN1CC(=O)NC1=O | active
O=P(OCCCl)(OCCCl)OCCCl | active
C[C@H](CCC(=O)O)[C@H]1CC[C@H]2[C@@H]3[C@H](O)C[C@@H]4C[C@H](O)CC[C@]4(C)[C@H]3CC[C@]12C | inactive
Nc1ccc(-c2ccccc2)cc1O | inactive
NC(=O)Cc1c([O-])on[n+]1Cc1ccccc1 | active; inactive
O.O.O.O.O.O.O.O.O=S(=O)([O-])[O-].O=S(=O)([O-])[O-].O=S(=O)([O-])[O-].[Cd+2].[Cd+2].[Cd+2] | inactive
C[N+](=O)[O-] | active
c1ccc(NNc2ccccc2)cc1 | active
c1ccc(OCC2CO2)cc1 (stereo unspecified) | active
O=[N+]([O-])c1ccc(-c2nc(NCCO)c3ccccc3n2)s1 | active
CCCN(N=O)C(N)=O | active
ClC1(Cl)C2(Cl)C3C4(Cl)C1(Cl)C1(Cl)C4(Cl)C(Cl)(Cl)C3(Cl)C21Cl (stereo unspecified) | active; inactive
COC(=O)[C@H]1[C@H]2C[C@@H]3c4[nH]c5cc(OC)ccc5c4CCN3C[C@H]2C[C@@H](OC(=O)c2cc(OC)c(OC)c(OC)c2)[C@@H]1OC | active
CN(C)[C@@H]1C(=O)C(C(N)=O)=C(O)[C@@]2(O)C(=O)C3=C(O)c4c(O)cccc4[C@@](C)(O)[C@H]3C[C@@H]12 | inactive
CCC(CC)[N+](=O)[O-] | active
O=C(O)[C@@H]1[C@H](C(=O)O)[C@@]2(Cl)C(Cl)=C(Cl)[C@]1(Cl)C2(Cl)Cl | active
CC(O)CN(CC(C)O)N=O (stereo unspecified) | active
C/C(=C(\CCOC(=O)c1ccccc1)SC(=O)c1ccccc1)N(C=O)Cc1cnc(C)nc1N | inactive; active
CC(O)CO (stereo unspecified) | inactive
C#CC(OC(N)=O)(c1ccccc1)c1ccc(Cl)cc1 (stereo unspecified) | active; inactive
CCC(=O)C(CC(C)N(C)C)(c1ccccc1)c1ccccc1 (stereo unspecified) | inactive

Structure (SMILES) | outcome
O=S(=O)([O-])[O-].[Cd+2] | active; inactive
O=C1C(O)N=C(c2ccccc2F)c2cc(Cl)ccc2N1CCO (stereo unspecified) | inactive
O=[N+]([O-])c1ccc(Cl)cc1 | active
O=S(=O)(c1ccc(Cl)cc1)c1cc(Cl)c(Cl)cc1Cl | inactive
CN(CCCO)N=O | active; inactive
Oc1ccccc1 | inactive
Cn1cc(OCC(O)CNC(C)(C)C)c2ccccc2c1=O (stereo unspecified) | inactive; active
C/[N+]([O-])=N/CO[C@@H]1O[C@H](CO)[C@@H](O)[C@H](O)[C@H]1O | active
C[C@]12CC[C@H]3C(=CCc4cc(OS(=O)(=O)O)ccc43)[C@@H]1CCC2=O | inactive; active
Nc1cccc2c(N)cccc12 | active
Cc1ccc(S(=O)(=O)NC(=O)NN2CCCCCC2)cc1 | inactive
O=Cc1ccco1 | active; inactive
[O]=[Cr][O][Cr]=[O] | inactive
CCNNC(=O)[C@@H]1[C@H](c2cc(OC)c(OC)c(OC)c2)c2cc3c(cc2[C@H](O)[C@H]1CO)OCO3 | inactive
Cc1cccc2cccnc12 | inactive
CCCCN(N=O)C(=N)N[N+](=O)[O-] | inactive
ClC1=C(Cl)[C@]2(Cl)[C@@H]3[C@@H]4C[C@@H]([C@H]5O[C@@H]45)[C@@H]3[C@@]1(Cl)C2(Cl)Cl | active
Cc1ccc2ncccc2c1 | inactive
ClCOCCOCCl | active
OCc1ccccc1 | inactive
Clc1cc(Cl)cc(-c2cc(Cl)cc(Cl)c2)c1 | inactive
N#Cc1ccc(C2CCCc3cncn32)cc1 (stereo unspecified) | inactive; active
CC(Cl)C=O (stereo unspecified) | active
CC(C)NCC(O)COc1cccc2ccccc12 (stereo unspecified) | inactive
C/C=N/N(C)C=O | active; inactive
CC(=O)C(N=Nc1ccc(Cl)cc1Cl)C(=O)Nc1ccc(-c2ccc(NC(=O)C(N=Nc3ccc(Cl)cc3Cl)C(C)=O)c(C)c2)cc1C (stereo unspecified) | inactive

Structure (SMILES) | outcome
O | inactive
CN(C)C=O | inactive; active
NC(N)=O | inactive
O=[N+]([O-])c1ccc2c(c1)Cc1ccccc1-2 | active
CC(/C=C/C=C(\C)C(=O)O[C@@H]1O[C@H](CO[C@@H]2O[C@H](CO)[C@@H](O)[C@H](O)[C@H]2O)[C@@H](O)[C@H](O)[C@H]1O)=C\C=C\C=C(C)\C=C\C=C(/C)C(=O)O[C@@H]1O[C@H](CO[C@@H]2O[C@H](CO)[C@@H](O)[C@H](O)[C@H]2O)[C@@H](O)[C@H](O)[C@H]1O | inactive
C=CCOC(=O)CC(C)C | active
CCN(CC)CCOc1ccc(C(O)(Cc2ccc(OC)cc2)c2ccccc2)cc1 (stereo unspecified) | inactive
Nc1cc(Cl)cc(C(=O)O)c1Cl | active; inactive
CC(Cl)Cl | inactive; active
Cc1ccc(-c2cc(C(F)(F)F)nn2-c2ccc(S(N)(=O)=O)cc2)cc1 | inactive
CC1(C)OC(=O)NC1=O | inactive
NNc1nc(-c2ccc([N+](=O)[O-])cc2)cs1 | active
COS(C)(=O)=O | active; inactive
C[C@]12C=CC(=O)C=C1CC[C@@H]1[C@@H]2C(=O)C[C@@]2(C)[C@H]1CC[C@]2(O)C(=O)CO | inactive
CCOC(=O)C(O)(c1ccc(Cl)cc1)c1ccc(Cl)cc1 | active
O=NN1CCCN(N=O)CC1 | active
CC(C)(C)NC(=O)[C@H]1CC[C@H]2[C@@H]3CC[C@H]4NC(=O)C=C[C@]4(C)[C@H]3CC[C@]12C | active; inactive
CCNC(=O)N(CCN(C)C)N=O | active
S=[Se] | active
ClC(Cl)C(Cl)Cl | active
Oc1c(Cl)cc(Cl)c(Cl)c1Cc1c(O)c(Cl)cc(Cl)c1Cl | inactive
S=c1[nH]c2ccccc2s1 | active
O=C1C=CC(=O)C=C1 | active
O=C(CCl)c1ccccc1 | inactive; active
CCOc1ccc(NC(C)=O)cc1N | active
CC(C)(c1ccc(O)cc1)c1ccc(O)cc1 | inactive; active

Structure (SMILES) | outcome
NC(=O)OCC(COC(N)=O)c1ccccc1 | active; inactive
C=CC(O)c1ccc(OC)cc1 (stereo unspecified) | active
Nc1ccc(-c2ccccc2)cc1 | active
C=Cc1ccc(C)cc1 | inactive
Clc1ccccc1Cl | inactive
OCCOCCOCCO | inactive
Nc1nc(N)nc(-c2cc(Cl)ccc2Cl)n1 | inactive
CC1CN(N=O)C(=O)NC1=O (stereo unspecified) | inactive
c1ccc2[nH]c(-c3cscn3)nc2c1 | inactive
ClCOCCCCCCOCCl | inactive
C=CCc1ccc(O)c(OC)c1 | inactive
CC1=C(/C=C/C(C)=C/C=C/C(C)=C/C=C/C=C(C)/C=C/C=C(C)/C=C/C2=C(C)CCCC2(C)C)C(C)(C)CCC1 | inactive
CC(O)C(=O)O (stereo unspecified) | inactive
Cc1cc2ncccc2c2nc(N)n(C)c12 | active
COC(=O)C1=C(C)NC(C)=C(C(=O)OCCc2ccc(N3CCN(C(c4ccccc4)c4ccccc4)CC3)cc2)C1c1cccc([N+](=O)[O-])c1 (stereo unspecified) | inactive; active
C1CC2OC2CC1C1CO1 (stereo unspecified) | inactive
COc1ccc(CN(CCN(C)C)c2ccccn2)cc1 | active; inactive
CCn1nc(C)c2c1C(c1ccccc1)=NCC(=O)N2 | active
CCCCN(N)CCCC | active
CCOc1ccccc1C(N)=O | active
CN(C)CCN(Cc1cccs1)c1ccccc1 | inactive
COc1ccccc1N1CCN(CCCNc2cc(=O)n(C)c(=O)n2C)CC1 | inactive
CCN(CC)C(=O)/C(Cl)=C(\C)OP(=O)(OC)OC | inactive
CN(C)CCO | inactive; active
P | inactive
O=S(=O)(O)NC1CCCCC1 | active

Structure (SMILES) | outcome
COP(=O)(OC)OC | active
Nc1ncn[nH]1 | active; inactive
ClC(Cl)=C(Cl)c1c(Cl)c(Cl)c(Cl)c(Cl)c1Cl | inactive
O=P(O)(OCC(Br)CBr)OCC(Br)CBr (stereo unspecified) | active; inactive
COc1cc(/C=N/NC(=O)c2ccncc2)ccc1O | active; inactive
NNC(=O)c1ccncc1 | active; inactive
O=C(O)c1[nH]n(-c2ccc(S(=O)(=O)O)cc2)c(=O)c1N=Nc1ccc(S(=O)(=O)O)cc1 | inactive
S=C(NC1CCCCC1)NC1CCCCC1 | inactive; active
CCN(CC)C(=S)[S-].CCN(CC)C(=S)[S-].[Zn+2] | inactive
Cc1cc(C)c(N)cc1C | active
c1cc(OCC2CO2)cc(OCC2CO2)c1 (stereo unspecified) | active
[O-]/[N+](=N\O)c1ccccc1 | active; inactive
Cc1cc(N=Nc2ccccc2C)ccc1N | active
CCN=[N+](C)[O-] | active
O=NN(CCO)CC(O)CO (stereo unspecified) | active
O=P1(N(CCCl)CCCl)NCCCO1 (stereo unspecified) | active
Cc1cc(O)c2c(c1O)C(=O)C13C(=C2O)C(=O)C2C(O)C1C1C(O)C3C(=O)C3=C(O)c4c(O)cc(C)c(O)c4C(=O)C321 (stereo unspecified) | active
O=C(O)CN(CCN(CC(=O)O)CC(=O)O)CC(=O)O | inactive
Cc1c([N+](=O)[O-])c(C)c([N+](=O)[O-])c(C(C)(C)C)c1[N+](=O)[O-] | active
C=C(Cl)CSC(=S)N(CC)CC | active; inactive
CNC(=S)NC | inactive
N[C@@H](CCC(=O)NNc1ccc(CO)cc1)C(=O)O | inactive
